Laboratory results published in paper PMC5119973 (Cancer Medicine, 2016).

Experiments:
PDGFRA = target: T1, PDGFRA (Homo sapiens, UniProt P16234); assay: KINOMEscan active-site competitive binding assay; conditions: slash = two separate measurements
T1 construct: purchased DiscoveRx

FLT3^D835H = target: T2, FLT3^D835H (Homo sapiens, UniProt P36888, D835H); assay: KINOMEscan active-site competitive binding assay
T2 construct: purchased DiscoveRx

KIT^V559D = target: T3, KIT^V559D (Homo sapiens, UniProt P10721, V559D); assay: KINOMEscan active-site competitive binding assay
T3 construct: purchased DiscoveRx (KINOMEscan service)
T3 sequence (P10721 26-976 V559D): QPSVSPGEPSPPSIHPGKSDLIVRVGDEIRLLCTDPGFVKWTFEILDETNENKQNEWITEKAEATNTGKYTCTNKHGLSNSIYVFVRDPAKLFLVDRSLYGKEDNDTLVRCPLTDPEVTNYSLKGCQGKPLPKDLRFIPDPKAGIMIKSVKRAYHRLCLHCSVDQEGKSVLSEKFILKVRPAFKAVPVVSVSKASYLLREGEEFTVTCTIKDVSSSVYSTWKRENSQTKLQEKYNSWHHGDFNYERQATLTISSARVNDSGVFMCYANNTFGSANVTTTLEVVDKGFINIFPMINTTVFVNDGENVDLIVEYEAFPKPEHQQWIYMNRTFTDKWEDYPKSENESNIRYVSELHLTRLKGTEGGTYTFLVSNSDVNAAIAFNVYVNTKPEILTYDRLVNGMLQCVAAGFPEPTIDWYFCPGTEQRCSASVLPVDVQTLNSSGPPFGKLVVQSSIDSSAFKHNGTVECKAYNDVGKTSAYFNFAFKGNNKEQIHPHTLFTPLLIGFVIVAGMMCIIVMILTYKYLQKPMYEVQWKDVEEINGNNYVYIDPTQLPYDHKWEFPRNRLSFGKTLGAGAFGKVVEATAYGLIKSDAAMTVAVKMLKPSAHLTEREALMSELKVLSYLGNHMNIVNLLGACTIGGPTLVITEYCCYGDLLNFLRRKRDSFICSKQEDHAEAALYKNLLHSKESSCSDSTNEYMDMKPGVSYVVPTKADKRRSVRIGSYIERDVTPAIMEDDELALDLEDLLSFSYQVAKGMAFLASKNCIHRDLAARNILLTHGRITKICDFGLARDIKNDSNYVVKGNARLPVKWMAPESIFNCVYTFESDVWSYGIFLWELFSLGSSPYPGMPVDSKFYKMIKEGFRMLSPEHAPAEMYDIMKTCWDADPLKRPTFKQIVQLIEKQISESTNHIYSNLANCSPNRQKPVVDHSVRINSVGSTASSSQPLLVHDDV

RET^V804M = target: T4, RET^V804M (Homo sapiens, UniProt P07949, V804M); assay: KINOMEscan active-site competitive binding assay
T4 construct: purchased DiscoveRx (KINOMEscan service)
T4 sequence (P07949 29-1114 V804M): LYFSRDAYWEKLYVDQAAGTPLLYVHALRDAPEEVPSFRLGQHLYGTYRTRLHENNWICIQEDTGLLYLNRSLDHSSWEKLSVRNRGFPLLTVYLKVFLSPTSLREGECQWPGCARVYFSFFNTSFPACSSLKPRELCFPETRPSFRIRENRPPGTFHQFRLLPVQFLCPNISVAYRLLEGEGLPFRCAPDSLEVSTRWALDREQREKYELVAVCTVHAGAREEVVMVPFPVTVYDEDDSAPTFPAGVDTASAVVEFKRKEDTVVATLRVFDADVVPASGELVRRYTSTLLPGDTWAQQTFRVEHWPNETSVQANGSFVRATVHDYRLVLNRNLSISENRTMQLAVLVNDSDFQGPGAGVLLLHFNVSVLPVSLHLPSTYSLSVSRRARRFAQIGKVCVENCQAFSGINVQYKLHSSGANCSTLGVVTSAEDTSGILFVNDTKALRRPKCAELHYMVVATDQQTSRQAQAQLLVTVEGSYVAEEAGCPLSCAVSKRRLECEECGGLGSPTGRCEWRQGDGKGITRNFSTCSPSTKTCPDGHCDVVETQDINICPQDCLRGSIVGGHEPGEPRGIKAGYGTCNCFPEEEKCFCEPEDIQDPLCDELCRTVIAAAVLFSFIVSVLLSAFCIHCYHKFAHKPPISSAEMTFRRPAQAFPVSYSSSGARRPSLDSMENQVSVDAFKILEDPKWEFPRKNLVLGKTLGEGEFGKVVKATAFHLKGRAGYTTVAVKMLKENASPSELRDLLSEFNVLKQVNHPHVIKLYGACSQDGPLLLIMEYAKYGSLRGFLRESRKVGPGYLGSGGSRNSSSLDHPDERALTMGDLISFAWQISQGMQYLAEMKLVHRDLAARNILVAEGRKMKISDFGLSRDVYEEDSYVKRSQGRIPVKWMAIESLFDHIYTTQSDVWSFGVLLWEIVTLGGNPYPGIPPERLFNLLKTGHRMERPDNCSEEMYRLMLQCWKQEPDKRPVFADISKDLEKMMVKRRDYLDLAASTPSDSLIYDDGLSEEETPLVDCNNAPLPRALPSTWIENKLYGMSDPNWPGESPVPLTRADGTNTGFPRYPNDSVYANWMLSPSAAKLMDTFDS

RAFs = assay: KINOMEscan active-site competitive binding assay; conditions: range among family members
KIT^K642E = target: T5, KIT^K642E (Homo sapiens, UniProt P10721, K642E); assay: Cellular kinase phosphorylation assay, GIST882/KIT^K642E; type: cell-based; conditions: GIST882/KIT^K642E cells; 0.1% bovine serum albumin; brackets = number of experiments; read-out: Mean ± SD IC50
T5 construct: KIT^K642E assays were performed in a GIST cell line (GIST882); endogenous in cells; host or cells: GIST882
T5 sequence (P10721 26-976 K642E): as the sequence (P10721 26-976 V559D) above, with D534V, K617E counted along it

TIE‐2 = TIE‐2 (Homo sapiens, UniProt Q02763); assay: KINOMEscan active-site competitive binding assay; parameters: purchased DiscoveRx (KINOMEscan service); conditions: data not shown
TIE‐2, sequence (Q02763 23-1124): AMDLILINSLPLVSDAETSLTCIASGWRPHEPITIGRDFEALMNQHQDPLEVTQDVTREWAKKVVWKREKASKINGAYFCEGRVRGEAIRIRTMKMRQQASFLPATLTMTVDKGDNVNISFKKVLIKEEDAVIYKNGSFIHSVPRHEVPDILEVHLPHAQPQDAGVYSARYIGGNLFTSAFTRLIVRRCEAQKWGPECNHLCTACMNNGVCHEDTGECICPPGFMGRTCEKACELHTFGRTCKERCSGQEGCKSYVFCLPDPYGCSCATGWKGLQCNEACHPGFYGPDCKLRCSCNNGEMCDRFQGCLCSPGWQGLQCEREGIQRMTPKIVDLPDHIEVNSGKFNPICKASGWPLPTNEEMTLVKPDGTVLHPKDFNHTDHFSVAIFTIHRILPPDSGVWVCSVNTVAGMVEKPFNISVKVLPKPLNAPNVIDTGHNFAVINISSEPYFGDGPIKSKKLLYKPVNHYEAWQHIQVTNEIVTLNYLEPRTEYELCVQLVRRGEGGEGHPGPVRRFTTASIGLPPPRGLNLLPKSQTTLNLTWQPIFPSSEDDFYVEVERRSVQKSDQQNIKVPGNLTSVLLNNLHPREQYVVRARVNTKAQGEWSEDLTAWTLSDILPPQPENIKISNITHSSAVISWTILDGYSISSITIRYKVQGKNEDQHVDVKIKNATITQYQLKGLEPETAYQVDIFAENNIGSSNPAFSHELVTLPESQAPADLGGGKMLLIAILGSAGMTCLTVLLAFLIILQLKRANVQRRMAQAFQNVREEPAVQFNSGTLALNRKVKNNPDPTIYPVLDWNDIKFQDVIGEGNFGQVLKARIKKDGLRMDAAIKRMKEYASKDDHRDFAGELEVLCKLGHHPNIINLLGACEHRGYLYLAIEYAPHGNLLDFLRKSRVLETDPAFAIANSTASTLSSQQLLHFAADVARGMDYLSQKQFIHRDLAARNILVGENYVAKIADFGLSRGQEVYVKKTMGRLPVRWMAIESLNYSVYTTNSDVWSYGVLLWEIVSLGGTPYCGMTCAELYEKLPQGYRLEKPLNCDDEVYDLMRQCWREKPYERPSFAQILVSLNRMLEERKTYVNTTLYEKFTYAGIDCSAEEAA

[1] = system: BaF/3 cells expressing an imatinib‐resistant mutant KIT (557‐558del; T670I); assay: In vitro proliferation, BaF/3 cells expressing imatinib‐resistant mutant KIT; type: cell-based; conditions: unpubl. data
HuLECs = conditions: 100 nmol/L, 40 h, regorafenib data taken from ref 14; cited from earlier work
[2] = system: recombinant murine VEGFR2; conditions: cited from earlier work
FLT3 = target: T6, FLT3 (Homo sapiens, UniProt P36888); assay: KINOMEscan active-site competitive binding assay; conditions: slash = two separate measurements
T6 construct: purchased DiscoveRx (KINOMEscan service)

FLT3^K663Q = target: T7, FLT3^K663Q (Homo sapiens, UniProt P36888, K663Q); assay: KINOMEscan active-site competitive binding assay
T7 construct: purchased DiscoveRx

T1 sequence (P16234 24-1089): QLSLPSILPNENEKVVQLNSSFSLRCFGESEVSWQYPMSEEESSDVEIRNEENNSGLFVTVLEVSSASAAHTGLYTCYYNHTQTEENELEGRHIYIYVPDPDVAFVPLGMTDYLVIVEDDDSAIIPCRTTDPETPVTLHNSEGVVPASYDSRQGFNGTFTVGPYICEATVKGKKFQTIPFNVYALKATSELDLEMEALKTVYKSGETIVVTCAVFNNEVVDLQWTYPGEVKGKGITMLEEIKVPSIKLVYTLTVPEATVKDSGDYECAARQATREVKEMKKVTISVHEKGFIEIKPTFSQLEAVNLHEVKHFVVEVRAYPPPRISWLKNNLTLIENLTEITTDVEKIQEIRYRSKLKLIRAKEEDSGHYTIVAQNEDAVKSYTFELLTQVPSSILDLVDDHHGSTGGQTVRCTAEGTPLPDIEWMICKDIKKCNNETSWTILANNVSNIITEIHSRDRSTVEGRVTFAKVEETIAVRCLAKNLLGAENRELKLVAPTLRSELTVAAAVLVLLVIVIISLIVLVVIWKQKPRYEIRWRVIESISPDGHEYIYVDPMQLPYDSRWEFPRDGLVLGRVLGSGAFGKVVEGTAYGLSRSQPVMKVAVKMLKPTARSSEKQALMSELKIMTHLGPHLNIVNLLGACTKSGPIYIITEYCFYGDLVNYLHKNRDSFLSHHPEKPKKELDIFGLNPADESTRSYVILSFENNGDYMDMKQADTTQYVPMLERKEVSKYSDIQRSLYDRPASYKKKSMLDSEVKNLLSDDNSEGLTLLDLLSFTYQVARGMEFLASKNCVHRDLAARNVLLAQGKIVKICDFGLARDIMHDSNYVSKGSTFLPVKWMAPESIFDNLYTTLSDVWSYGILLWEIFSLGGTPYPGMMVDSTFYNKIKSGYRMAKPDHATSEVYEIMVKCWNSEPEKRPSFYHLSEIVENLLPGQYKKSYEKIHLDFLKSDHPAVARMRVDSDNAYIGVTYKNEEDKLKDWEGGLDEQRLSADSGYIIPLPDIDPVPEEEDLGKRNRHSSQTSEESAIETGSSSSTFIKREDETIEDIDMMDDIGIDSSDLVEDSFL

## CNC(=O)c1cc(Oc2ccc(NC(=O)Nc3ccc(Cl)c(C(F)(F)F)c3)c(F)c2)cc[n+]1[O-] [M‐2]
PDGFRA
  Kd: 7.3 nM
FLT3^D835H
  Kd: 120 nM
KIT^V559D
  Kd: 12 nM
RET^V804M
  Kd: 20 nM
RAFs
  Kd: 24 to 130 nM
KIT^K642E
  IC50: 4 ± 2 nM
TIE‐2
  Kd: 790 nM

## CNC(=O)c1cc(Oc2ccc(NC(=O)Nc3ccc(Cl)c(C(F)(F)F)c3)c(F)c2)ccn1 [Regorafenib, reference compound]
[1]
  Inhibition of proliferation: potent inhibition
HuLECs
  Inhibition of VEGF‐C‐induced migration: inhibited
[2]
  IC50: ~4 nM

## NC(=O)c1cc(Oc2ccc(NC(=O)Nc3ccc(Cl)c(C(F)(F)F)c3)c(F)c2)cc[n+]1[O-] [M‐5]
FLT3
  Kd: 2.6 nM
FLT3^K663Q
  Kd: 5.5 nM
KIT^V559D
  Kd: 9.6 nM
RET^V804M
  Kd: 25 nM
TIE‐2
  Kd: 1200 nM
